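Following 48 hours of exposure in 96-well plates, responses at five concentrations were used to interpolate endpoints linearly. GI50 marks 50% less growth.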 Active and inactive are the calls of the source. Rule as the data show it: active = GI50 up to about 1.1 µM and inactive = higher.
How the values were obtained:
Assay in all cases: NCI-60 cell line screen, 48 h
SNB-19 = tested on: SNB-19
SR = tested on: SR
U-251 = tested on: U-251
NCI-H460 = tested on: NCI-H460
OVCAR-4 = tested on: OVCAR-4
SK-MEL-28 = tested on: SK-MEL-28
NCI-H23 = tested on: NCI-H23
MDA-MB-231 = tested on: MDA-MB-231
TK-10 = tested on: TK-10
SF-539 = tested on: SF-539
SF-295 = tested on: SF-295
NCI-H522 = tested on: NCI-H522
SK-MEL-5 = tested on: SK-MEL-5
NCI-H226 = tested on: NCI-H226
HT-29 = tested on: HT-29
HOP-62 = tested on: HOP-62
HOP-92 = tested on: HOP-92
RXF 393 = tested on: RXF 393
PC-3 = tested on: PC-3
A498 = tested on: A498
RPMI-8226 = tested on: RPMI-8226
A549 = tested on: A549
SN12C = tested on: SN12C
MOLT-4 = tested on: MOLT-4
LOX IMVI = tested on: LOX IMVI
COLO 205 = tested on: COLO 205
HCC 2998 = tested on: HCC 2998
K562 = tested on: K562
IGROV-1 = tested on: IGROV-1
EKVX = tested on: EKVX
Hs-578T = tested on: Hs-578T
M14 = tested on: M14
UACC-62 = tested on: UACC-62
786-0 = tested on: 786-0
MDA-N = tested on: MDA-N
DU-145 = tested on: DU-145
Malme-3M = tested on: Malme-3M
KM12 = tested on: KM12
SW-620 = tested on: SW-620
HCT-116 = tested on: HCT-116
ACHN = tested on: ACHN
OVCAR-3 = tested on: OVCAR-3
OVCAR-8 = tested on: OVCAR-8
CCRF-CEM = tested on: CCRF-CEM
SNB-75 = tested on: SNB-75
OVCAR-5 = tested on: OVCAR-5
UO-31 = tested on: UO-31
MDA-MB-435 = tested on: MDA-MB-435
HCT-15 = tested on: HCT-15
SF-268 = tested on: SF-268
HL-60 = tested on: HL-60
CAKI-1 = tested on: CAKI-1
UACC-257 = tested on: UACC-257
NCI/ADR-RES = tested on: NCI/ADR-RES
BT-549 = tested on: BT-549
SK-OV-3 = tested on: SK-OV-3
MCF7 = tested on: MCF7

With `O=c1c2cc([N+](=O)[O-])ccc2[nH]n1Cc1ccccc1Cl` the GI50 (SNB-19) was > 100 µM (inactive), the GI50 (SR) was 43.5 µM (inactive) and the GI50 (U-251) was 75.5 µM (inactive). For the same compound, the GI50 (NCI-H460) was 31 µM (inactive), the GI50 (OVCAR-4) was > 100 µM (inactive) and the GI50 (SK-MEL-28) was 44.6 µM (inactive). For the same compound, the GI50 (NCI-H23) was 59.6 µM (inactive), the GI50 (MDA-MB-231) was 70.5 µM (inactive) and the GI50 (TK-10) was 18.2 µM (inactive). For the same compound, the GI50 (SF-539) was 98.4 µM (inactive), the GI50 (SF-295) was > 100 µM (inactive) and the GI50 (NCI-H522) was 32.7 µM (inactive). The GI50 (SK-MEL-5) was 34.7 µM (inactive), the GI50 (NCI-H226) was 74.1 µM (inactive) and the GI50 (HT-29) was 54.8 µM (inactive). The GI50 (HOP-62) was 38.1 µM (inactive), the GI50 (HOP-92) was 27.8 µM (inactive) and the GI50 (RXF 393) was 35.2 µM (inactive). The GI50 (PC-3) was 93.8 µM (inactive), the GI50 (A498) was 33.3 µM (inactive) and the GI50 (RPMI-8226) was 30.1 µM (inactive). The GI50 (A549) was 42.1 µM (inactive), the GI50 (SN12C) was 86.1 µM (inactive) and the GI50 (MOLT-4) was 74 µM (inactive). For the same compound, the GI50 (LOX IMVI) was > 100 µM (inactive), the GI50 (COLO 205) was 73.3 µM (inactive) and the GI50 (HCC 2998) was 57.9 µM (inactive). For the same compound, the GI50 (K562) was 48.8 µM (inactive), the GI50 (IGROV-1) was 80.2 µM (inactive) and the GI50 (EKVX) was 30.2 µM (inactive). For the same compound, the GI50 (Hs-578T) was 48.8 µM (inactive), the GI50 (M14) was 86.1 µM (inactive) and the GI50 (UACC-62) was > 100 µM (inactive). For the same compound, the GI50 (786-0) was 64.9 µM (inactive), the GI50 (MDA-N) was > 100 µM (inactive) and the GI50 (DU-145) was 47 µM (inactive). The GI50 (Malme-3M) was 26.7 µM (inactive), the GI50 (KM12) was 55.7 µM (inactive) and the GI50 (SW-620) was 88.9 µM (inactive). The GI50 (HCT-116) was 55.7 µM (inactive), the GI50 (ACHN) was 46.1 µM (inactive) and the GI50 (OVCAR-3) was > 100 µM (inactive). For the same compound, the GI50 (OVCAR-8) was 75.7 µM (inactive), the GI50 (CCRF-CEM) was 85.5 µM (inactive) and the GI50 (SNB-75) was > 100 µM (inactive). The GI50 (OVCAR-5) was > 100 µM (inactive), the GI50 (UO-31) was 39 µM (inactive) and the GI50 (MDA-MB-435) was 64.9 µM (inactive). For the same compound, the GI50 (HCT-15) was > 100 µM, the GI50 (SF-268) was > 100 µM (inactive) and the GI50 (HL-60) was 30.8 µM (inactive). For the same compound, the GI50 (CAKI-1) was > 100 µM (inactive), the GI50 (UACC-257) was 98.6 µM (inactive) and the GI50 (NCI/ADR-RES) was 40.6 µM (inactive).

In the case of `C=C(Cl)C(Br)(CBr)CCC(Br)C(C)(C)Br` (stereo unspecified), the GI50 (SNB-19) is reported as 4.25 µM (inactive), the GI50 (U-251) is reported as 5.11 µM (inactive) and the GI50 (OVCAR-4) is reported as 3.99 µM (inactive). The GI50 (SK-MEL-28) was > 10 µM (inactive), the GI50 (NCI-H23) was > 10 µM (inactive) and the GI50 (MDA-MB-231) was 1.62 µM (inactive). The GI50 (TK-10) was > 10 µM (inactive), the GI50 (SF-539) was 2.54 µM (inactive) and the GI50 (SF-295) was > 10 µM (inactive). For the same compound, the GI50 (NCI-H522) was > 10 µM (inactive), the GI50 (SK-MEL-5) was > 10 µM (inactive) and the GI50 (NCI-H226) was > 10 µM (inactive). For the same compound, the GI50 (HT-29) was 3.33 µM (inactive), the GI50 (HOP-62) was 6.67 µM (inactive) and the GI50 (HOP-92) was 5.06 µM (inactive). The GI50 (RXF 393) was 2.75 µM (inactive), the GI50 (PC-3) was > 10 µM (inactive) and the GI50 (A498) was > 10 µM (inactive). The GI50 (RPMI-8226) was 1.83 µM (inactive), the GI50 (A549) was 6.87 µM (inactive) and the GI50 (BT-549) was > 10 µM (inactive). The GI50 (SN12C) was 7.73 µM (inactive), the GI50 (MOLT-4) was 1.08 µM (active) and the GI50 (COLO 205) was 7.33 µM (inactive). For the same compound, the GI50 (HCC 2998) was > 10 µM (inactive), the GI50 (K562) was 1.88 µM (inactive) and the GI50 (IGROV-1) was 1.55 µM (inactive). For the same compound, the GI50 (EKVX) was > 10 µM (inactive), the GI50 (M14) was > 10 µM (inactive) and the GI50 (UACC-62) was 4.11 µM (inactive). For the same compound, the GI50 (786-0) was 1.57 µM (inactive), the GI50 (MDA-N) was 7.57 µM (inactive) and the GI50 (DU-145) was > 10 µM (inactive). For the same compound, the GI50 (KM12) was 4.37 µM (inactive), the GI50 (SW-620) was 2.7 µM (inactive) and the GI50 (SK-OV-3) was > 10 µM (inactive). For the same compound, the GI50 (HCT-116) was 2.01 µM (inactive), the GI50 (ACHN) was 9.16 µM (inactive) and the GI50 (MCF7) was 2.11 µM (inactive). For the same compound, the GI50 (OVCAR-3) was > 10 µM (inactive), the GI50 (CCRF-CEM) was 3.89 µM (inactive) and the GI50 (SNB-75) was 4.7 µM (inactive). The GI50 (OVCAR-5) was > 10 µM (inactive), the GI50 (UO-31) was > 10 µM (inactive) and the GI50 (MDA-MB-435) was > 10 µM (inactive). The GI50 (SF-268) was 2.51 µM (inactive) and the GI50 (CAKI-1) was > 10 µM (inactive).

For `CC1(C)C2CCC(CN)(C2)C1O` (stereo unspecified), the GI50 (SNB-19) was > 100 µM (inactive), the GI50 (SR) was > 100 µM (inactive) and the GI50 (U-251) was > 100 µM (inactive). The GI50 (NCI-H460) was > 100 µM (inactive), the GI50 (OVCAR-4) was > 100 µM (inactive) and the GI50 (SK-MEL-28) was > 100 µM (inactive). For the same compound, the GI50 (NCI-H23) was > 100 µM (inactive), the GI50 (MDA-MB-231) was > 100 µM (inactive) and the GI50 (TK-10) was > 100 µM (inactive). For the same compound, the GI50 (NCI-H226) was > 100 µM (inactive), the GI50 (HOP-92) was > 100 µM (inactive) and the GI50 (A498) was > 100 µM (inactive). The GI50 (RPMI-8226) was > 100 µM (inactive), the GI50 (BT-549) was > 100 µM (inactive) and the GI50 (SN12C) was > 100 µM (inactive). The GI50 (MOLT-4) was > 100 µM (inactive), the GI50 (HCC 2998) was > 100 µM (inactive) and the GI50 (K562) was > 100 µM (inactive). The GI50 (EKVX) was > 100 µM (inactive), the GI50 (UACC-62) was > 100 µM (inactive) and the GI50 (MDA-N) was > 100 µM (inactive). The GI50 (KM12) was > 100 µM (inactive), the GI50 (SW-620) was > 100 µM (inactive) and the GI50 (ACHN) was > 100 µM (inactive). The GI50 (OVCAR-8) was > 100 µM (inactive), the GI50 (CCRF-CEM) was > 100 µM (inactive) and the GI50 (SNB-75) was > 100 µM (inactive). The GI50 (UO-31) was > 100 µM (inactive), the GI50 (MDA-MB-435) was 65.6 µM (inactive) and the GI50 (HCT-15) was > 100 µM. The GI50 (SF-268) was > 100 µM (inactive), the GI50 (HL-60) was > 100 µM (inactive) and the GI50 (CAKI-1) was > 100 µM (inactive). The GI50 (UACC-257) was > 100 µM (inactive) and the GI50 (NCI/ADR-RES) was 80.2 µM (inactive).

From ChEMBL document CHEMBL1201862, “PubChem BioAssay data set” (2004)
